Each compound was assayed against T1, recombinant glucosyltransferase domain of C. difficile Toxin B/TcdB (Clostridioides difficile, UniProt P18177) (assay: biochemical).
T1 construct: 6-His (C); purchased R&D Systems 6246-GT
T1 sequence (P18177 1-543): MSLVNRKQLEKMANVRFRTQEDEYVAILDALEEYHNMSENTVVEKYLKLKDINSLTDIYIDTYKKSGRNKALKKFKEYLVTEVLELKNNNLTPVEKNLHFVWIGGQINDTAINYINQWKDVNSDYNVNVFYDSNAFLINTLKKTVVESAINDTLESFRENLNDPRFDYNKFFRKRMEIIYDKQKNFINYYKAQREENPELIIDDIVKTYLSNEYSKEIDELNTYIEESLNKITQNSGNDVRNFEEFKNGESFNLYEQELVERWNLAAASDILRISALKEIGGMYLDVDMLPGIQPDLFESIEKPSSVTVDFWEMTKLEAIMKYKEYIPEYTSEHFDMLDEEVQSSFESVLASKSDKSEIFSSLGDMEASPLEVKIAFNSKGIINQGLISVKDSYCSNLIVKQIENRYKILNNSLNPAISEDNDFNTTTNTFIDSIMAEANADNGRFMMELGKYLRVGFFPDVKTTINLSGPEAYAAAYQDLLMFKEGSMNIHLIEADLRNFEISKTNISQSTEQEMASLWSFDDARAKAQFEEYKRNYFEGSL
For `O=C1Nc2cc(Cl)ccc2C(=O)N(Cc2ccc(C(=NO)c3ccccn3)cc2)[C@@H]1Cc1ccccn1` (mixture of isomers) [Example 52a, (R)-8-Chloro-4-(4-((hydroxyimino)(pyridin-2-yl)methyl)benzyl)-3-(pyridin-2-ylmethyl)-3,4-dihydro-1H-benzo[e][1,4]diazepine-2,5-dione], the IC50 was 0.1 to 0.999 µM.
`O=C(O)c1ccc(CN2C(=O)c3ccc(Cl)cc3NC(=O)[C@H]2Cc2ccccn2)cc1` [Example 1a, (R)-4-((8-Chloro-2,5-dioxo-3-(pyridin-2-ylmethyl)-2,3-dihydro-1H-benzo[e][1,4]diazepin-4(5H)-yl)methyl)benzoic Acid] was tested, and the IC50 was 0.1 to 0.999 µM.
`O=C(O)c1ccc(CN2C(=O)c3ccc(F)cc3NC(=O)[C@H]2Cc2cccnc2)cc1` [Example 1b] showed an IC50 of 1 to 10 µM.
In the case of `O=C(O)c1ccc(CN2C(=O)c3ccc(Cl)cc3NC(=O)[C@H]2Cc2ccncc2)cc1` [Example 1c], the IC50 is reported as 10 to 35 µM.
Work on `O=C(O)c1ccc(CN2C(=O)c3ccc(Cl)cc3NC(=O)[C@H]2Cc2ccc(Cl)c(Cl)c2)cc1` [Example 1d] yielded an IC50 of 1 to 10 µM.
With `Cc1ccc2c(c1)NC(=O)[C@@H](Cc1ccc(Cl)c(Cl)c1)N(Cc1ccc(C(=O)O)cc1)C2=O` [Example 1e] the IC50 was 10 to 35 µM.
With `O=C(O)c1ccc(CN2C(=O)c3ccc(Cl)cc3NC(=O)[C@@H]2Cc2ccccn2)cc1` [Example 1f] the IC50 was 0.1 to 0.999 µM.
For `O=C(O)c1ccc(CN2C(=O)c3ccc(Br)cc3NC(=O)[C@H]2Cc2cccnc2)cc1` [Example 1g], the IC50 was 1 to 10 µM.
In the case of `O=C(O)c1ccc(CN2C(=O)c3ccc(Cl)cc3NC(=O)[C@H]2Cc2ccccn2)s1` [Example 1h], the IC50 is reported as 0.1 to 0.999 µM.
`O=C(O)c1ccc(CN2C(=O)c3ccc(Cl)cc3NC(=O)[C@H]2Cc2ccccn2)cc1F` [Example 1i] showed an IC50 of 0.1 to 0.999 µM.
With `O=C1Nc2cc(Cl)ccc2C(=O)N(C[C@H]2CC[C@H](C(=O)O)CC2)[C@@H]1Cc1ccccn1` [Example 1j] the IC50 was 10 to 35 µM.
For `O=C(O)c1ccc(CN2C(=O)c3ccc(Cl)cc3NC(=O)[C@H]2Cc2cccs2)cc1` [Example 1k], the IC50 was 10 to 35 µM.
With `O=C(O)c1ccc(CN2C(=O)c3ccc(Cl)cc3NC(=O)C2Cc2cnccn2)cc1` (stereo not shown) [Example 1l] the IC50 was 1 to 10 µM.
`O=C(O)c1ccc(CN2C(=O)c3ccc(Cl)cc3NC(=O)[C@H]2Cc2cscn2)cc1` [Example 1m] was tested, and the IC50 was 1 to 10 µM.
`C[C@@H]1C(=O)Nc2cc(Cl)ccc2C(=O)N1Cc1ccc(C(=O)O)c(Br)c1` [Example 1n] showed an IC50 of 10 to 35 µM.
In the case of `O=C(O)c1ccc(CN2C(=O)c3ccc(Cl)cc3NC(=O)[C@H]2Cc2cccnc2)cc1` [Example 2a, (R)-4-((8-Chloro-2,5-dioxo-3-(pyridin-3-ylmethyl)-2,3-dihydro-1H-benzo[e][1,4]diazepin-4(5H)-yl)methyl)benzoic Acid], the IC50 is reported as 0.1 to 0.999 µM.
With `O=C(O)c1ccc(CN2C(=O)c3ccc(Cl)cc3NC(=O)[C@@H]2Cc2ccc(O)cc2)cc1` [Example 2c] the IC50 was 10 to 35 µM.
With `O=C(O)c1ccc(CN2C(=O)c3ccc(Cl)cc3NC(=O)[C@H]2Cc2ccc(O)cc2)cc1` [Example 2d] the IC50 was 1 to 10 µM.
`COc1ccc2c(c1)NC(=O)[C@@H](Cc1cccnc1)N(Cc1ccc(C(=O)O)cc1)C2=O` [Example 2e] showed an IC50 of 1 to 10 µM.
`COc1ccc2c(c1)NC(=O)[C@@H](Cc1ccc(Cl)c(Cl)c1)N(Cc1ccc(C(=O)O)cc1)C2=O` [Example 2f] gave an IC50 of 1 to 10 µM.
`O=C(O)c1ccc(CN2C(=O)c3ccc(F)cc3NC(=O)[C@H]2Cc2ccc(Cl)c(Cl)c2)cc1` [Example 2g] was tested, and the IC50 was 1 to 10 µM.
For `O=C(O)c1ccc(CN2C(=O)c3ccc([N+](=O)[O-])cc3NC(=O)[C@H]2Cc2ccc(Cl)c(Cl)c2)cc1` [Example 2h], the IC50 was 1 to 10 µM.
`O=C(O)c1ccc(CN2C(=O)c3ccc([N+](=O)[O-])cc3NC(=O)[C@H]2Cc2cccnc2)cc1` [Example 2i] was tested, and the IC50 was 1 to 10 µM.
For `O=C(O)c1ccc(CN2C(=O)c3ccc(Cl)cc3NC(=O)[C@H]2Cc2ccccc2)cc1` [Example 3a, (R)-4-((3-Benzyl-8-chloro-2,5-dioxo-2,3-dihydro-1H-benzo[e][1,4]diazepin-4(5H)-yl)methyl)benzoic Acid], the IC50 was 1 to 10 µM.
In the case of `C[C@H]1C(=O)Nc2cc(Cl)ccc2C(=O)N1Cc1ccc(C(=O)O)cc1` [Example 3b], the IC50 is reported as 10 to 35 µM.
